Measured values: patent publication US10570141B2, “Substituted pyrrolopyrimidine CDK inhibitor, pharmaceutical composition containing same and use thereof” (CHIA TAI TIANQING PHARMACEUTICAL GROUP CO., LTD., priority 2016, dated 2020)
Structures can show the parent of a compound that is named as a salt. Where two headings read alike, the source gives them in different places.

Assays:
Colo-205 cells = test: Inhibition of proliferation of colon cancer cell line Colo-205 (Cell-Titer Glo); type: cell-based, human; details: 72 hours incubation, cell viability, read-out: IC50(Colo205)
Experimental: (§1) Colo-205 (Crown Bioscience Inc.) and MCF7 (Beijing Jinzijing Biology Medicine Technology Co., Ltd.) cells were inoculated into a 96-well plate (Corning, Item No.: 3599) at a density of 1000 cells/well, and incubated overnight. A compound at different concentrations (10000 nM, 3000 nM, 1000 nM, 300 nM, 100 nM, 30 nM, 10 nM, 3 nM, 1 nM, 0.3 nM, 0 nM, final concentration of DMSO: 0.1%) was added on the next day, and the incubation was continued for additional 72 hours. The culture medium was sucked with a vacuum pump, 50 ul of Cell-Titer Glo reagent (Promega, Item No.: G7572) was added to each well, and shaken for 10 min. Chemiluminescent signals were collected by EnVision® Multilabel Reader (PerkinElmer Inc.) to detect the cell viability and calculate the half maximal inhibitory concentration of the compound for inhibiting cell proliferation.

MCF7 cells = test: Inhibition of proliferation of breast cancer cell line MCF7 (Cell-Titer Glo); type: cell-based, human; details: 72 hours incubation, cell viability
Experimental: as §1

[1] = rat, in vivo, po, 5 mg/kg
Experimental: (§4) 3 Healthy adult male rats were used for each tested compound. The tested compound was suspended in 20% sulfobutyl ether-β-cyclodextrin at a concentration of 1 mg/mL, and then was intragastrically administered at a single dose of 5 mg/kg (administered volume: 5 mL/kg). The animals to be intragastrically administered were fasted overnight prior to the experiment, i.e., fasted from 10 h prior to the administration to 4 h after the administration, and blood samples were collected in 0.25, 0.5, 1, 2, 4, 6, 8 and 24 h after the intragastric administration. About 0.3 mL of whole blood was collected from the orbital venous plexus, and put in a heparin anticoagulant tube. The sample was centrifuged at 4° C. at 4000 rpm for 5 min. The plasma was transferred to a centrifuge tube, and kept at −80° C. until analysis. Concentration of the tested compound in the plasma sample was analyzed using non-validated liquid chromatography-tandem mass spectrometry (LC-MS/MS). Plasma concentration-time data of individual animals were analyzed using WinNonlin (Professional Edition, Version 6.3; Pharsight Corporation) software. A non-compartment model was used for concentration analysis.

CDK4/CyclinD3 = CDK4/CyclinD3 (Homo sapiens (Human), UniProt P11802); test: In vitro kinase activity inhibition assay of CDK4/CyclinD3 (LANCE method); type: biochemical; details: recombinant CDK4/CyclinD3 2 nM, ATP 200 μM, 1 h room temperature
Text: (§2) A method for in vitro kinase activity inhibition assay of CDK4/CyclinD3 and CDK6/CyclinD3 is established as follows:
(§3) LANCE method of PerkinElmer Inc. was used in the assay, and recombinant CDK4/CyclinD3 (Item No.: 04-105) and CDK6/CyclinD3 (Item No.: 04-107) kinases were purchased from Cama Biosciences, Inc. Substrate ULight-MBP (Item No.: TRF0109) and Eu-labeled anti-MBP antibody (Item No.: TRF0201) were purchased from PerkinElmer. HEPES PH7.5 (Item No.: #15630080), DTT (Item No.: # D1532), MgCl2 (Item No.: # AM9530G), EGTA (Item No.: # E1219), and EDTA (Item No.: # AM9260G) were purchased from Life Technology. Firstly, a 1× buffer solution A (50 mM HEPES, PH 7.5, 10 mM MgCl2, 1 mM EGTA, 0.01% Tween 20 and 2 mM DTT) was prepared. A compound to be tested was dissolved in DMSO to 1 mM, serially diluted with DMSO, and then diluted 25-fold with the buffer solution A (final concentration of DMSO: 1%). CDK4/CyclinD3 and CDK6/CyclinD3 were diluted respectively with the buffer solution A. Finally, the buffer solution A was used to prepare the substrate and ATP. 4 μl of CDK4/CyclinD3 (final concentration: 2 nM) or CDK6/CyclinD3 (final concentration: 4 nM), 2 μl of the diluted compound, and 4 μl of a mixture of the substrate (final concentration: 50 nM) and ATP (final concentration: 200 μM) were added to reaction wells, and the resulting mixture was kept at room temperature to react for 1 h. Then, an EDTA solution was added to terminate the reaction, and Eu-labeled anti-MBP antibody was added and the resulting mixture was incubated at room temperature for additional 1 h. EnVision was used to read fluorescent signals (excitation wavelength: […], emission wavelength: […]).

CDK6/CyclinD3 = CDK6/CyclinD3 (Homo sapiens (Human), UniProt Q00534); test: In vitro kinase activity inhibition assay of CDK6/CyclinD3 (LANCE method); type: biochemical; details: recombinant CDK6/CyclinD3 4 nM, ATP 200 μM, 1 h room temperature
Text: as §2, §3

[2] = Pharmacokinetics evaluation in rats after intragastric administration; details: male, rat, plasma, po, 5 mg/kg
Experimental: as §4

Sequence of CDK6/CyclinD3 (Q00534 whole entry): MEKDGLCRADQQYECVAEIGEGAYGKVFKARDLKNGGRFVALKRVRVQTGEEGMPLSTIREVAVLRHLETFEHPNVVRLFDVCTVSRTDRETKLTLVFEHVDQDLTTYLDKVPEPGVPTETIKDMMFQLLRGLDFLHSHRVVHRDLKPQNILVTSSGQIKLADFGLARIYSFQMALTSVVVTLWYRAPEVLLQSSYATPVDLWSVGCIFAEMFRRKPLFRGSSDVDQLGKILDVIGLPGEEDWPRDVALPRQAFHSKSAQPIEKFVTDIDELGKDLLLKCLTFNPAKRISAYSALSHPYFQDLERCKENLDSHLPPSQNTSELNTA
Sequence of CDK6/CyclinD3 (P30281 whole entry partner): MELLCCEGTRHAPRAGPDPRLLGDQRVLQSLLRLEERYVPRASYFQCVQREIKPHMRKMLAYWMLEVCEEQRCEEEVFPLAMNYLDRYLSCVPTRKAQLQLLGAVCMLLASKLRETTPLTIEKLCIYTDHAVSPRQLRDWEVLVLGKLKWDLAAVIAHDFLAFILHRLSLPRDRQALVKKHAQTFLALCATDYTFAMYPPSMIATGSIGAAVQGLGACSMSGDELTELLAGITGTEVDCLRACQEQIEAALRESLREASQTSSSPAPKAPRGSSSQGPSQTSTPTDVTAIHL
Sequence of CDK4/CyclinD3 (P11802 whole entry): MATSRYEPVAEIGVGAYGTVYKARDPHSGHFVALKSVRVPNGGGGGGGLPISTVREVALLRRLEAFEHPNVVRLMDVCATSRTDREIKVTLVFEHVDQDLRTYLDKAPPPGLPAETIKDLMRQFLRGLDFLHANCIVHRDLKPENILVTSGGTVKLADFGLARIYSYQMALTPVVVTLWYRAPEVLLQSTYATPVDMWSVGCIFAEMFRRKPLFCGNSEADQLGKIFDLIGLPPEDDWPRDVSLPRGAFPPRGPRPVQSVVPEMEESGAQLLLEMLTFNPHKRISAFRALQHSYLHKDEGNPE
Sequence of CDK4/CyclinD3 (P30281 whole entry partner): as the sequence (P30281 whole entry partner) above

| SMILES | IC50 (CDK4/CyclinD3) | IC50 (Colo-205 cells; Homo sapiens) | IC50 (CDK6/CyclinD3) | AUC(0-inf) [2] | Cmax [2] | Tmax [2] | half-life [2] | IC50 (MCF7 cells; Homo sapiens) | also measured |
| --- | --- | --- | --- | --- | --- | --- | --- | --- | --- |
| CN(C)C(=O)c1cc2cnc(Nc3ccc(N4CCNCC4)cn3)nc2n1C1CCCC1.Cl [Comparative Example 1, 7-cyclopentyl-2-(5-(piperazin-1-yl-pyridin-2-ylamino)-7H-pyrrolo[2,3-d]pyrimidine-6-carboxylic acid dimethylamide (ribociclib) hydrochloride] | – | – | – | – | – | – | – | – | IC50 (Colo-205 cells): 2.69 µM; IC50 (MCF7 cells): 0.326 µM |
| CN(C)C(=O)c1cc2cnc(Nc3ccc(N4CCNCC4)cn3)nc2n1C1CCCC1.Cl [Comparative Example 1] | – | – | – | – | – | – | – | – | AUC(0-inf) [1]: 120 ng·h/mL; Cmax [1]: 15.8 ng/mL; T1/2 [1]: 4.25 h; Tmax [1]: 2.67 h |
| CS(=O)(=O)c1cc2cnc(Nc3ccc(N4CCNCC4)cn3)nc2n1C1CCCC1 [Example 1, 7-cyclopentyl-6-methylsulfonyl-N-(5-(piperazin-1-yl)pyridin-2-yl)-7H-pyrrolo[2,3-d]pyrimidin-2-amine hydrochloride] | 0.0008 µM | 0.271 µM | 0.0057 µM | 1960 ng·h/mL | 255 ng/mL | 1.33 h | 7.23 h | 0.114 µM | – |
| CCS(=O)(=O)c1cc2cnc(Nc3ccc(N4CCNCC4)cn3)nc2n1C1CCCC1 [Example 2, 7-cyclopentyl-6-ethylsulfonyl-N-(5-(piperazin-1-yl)pyridin-2-yl)-7H-pyrrolo[2,3-d]pyrimidin-2-amine hydrochloride] | 0.00212 µM | – | 0.021 µM | – | – | – | – | – | – |
| CN(C)C1CCN(c2ccc(Nc3ncc4cc(S(C)(=O)=O)n(C5CCCC5)c4n3)nc2)CC1 [Example 3, 7-cyclopentyl-6-methylsulfonyl-N-(5-(4-(dimethylamino)piperidin-1-yl)pyridin-2-yl)-7H-pyrrolo[2,3-d]pyrimidin-2-amine hydrochloride] | 0.0034 µM | – | 0.0187 µM | – | – | – | – | – | – |
| CS(=O)(=O)c1cc2cnc(Nc3ccc(C4=CCNCC4)cn3)nc2n1C1CCCC1.Cl [Example 4, 7-cyclopentyl-6-methylsulfonyl-N-(5-(1,2,3,6-4H-pyridin-4-yl)pyridin-2-yl)-7H-pyrrolo[2,3-d]pyrimidin-2-amine hydrochloride] | 0.00257 µM | 0.312 µM | 0.0111 µM | 889 ng·h/mL | 90 ng/mL | 3 h | 3.28 h | 0.175 µM | – |
| CS(=O)(=O)c1cc2cnc(Nc3ccc(C4CCNCC4)cn3)nc2n1C1CCCC1 [Example 5, 7-cyclopentyl-6-methylsulfonyl-N-(5-(piperidin-4-yl)pyridin-2-yl)-7H-pyrrolo[2,3-d]pyrimidin-2-amine hydrochloride] | 0.00146 µM | 0.47 µM | 0.00985 µM | – | – | – | – | – | – |
| CN(C)C(=O)c1cc2cnc(Nc3ccc(C4=CCNCC4)cn3)nc2n1C1CCCC1.Cl [Example 6, 7-cyclopentyl-6-N,N-dimethylcarbamoyl-N-(5-(1,2,3,6-4H-pyridin-4-yl)pyridin-2-yl)-7H-pyrrolo[2,3-d]pyrimidin-2-amine hydrochloride] | 0.00237 µM | 1.26 µM | 0.0306 µM | 627 ng·h/mL | 74.3 ng/mL | 3.33 h | 3.76 h | 0.333 µM | – |
